The text below walks through data of PMC11893401, “Pharmacokinetics and pharmacodynamics of insulin lispro 25 versus the original preparation (Humalog®25) in Chinese healthy male volunteers” (Frontiers in Pharmacology, 2025).

The conditions of the series: in vivo.

Description: Tolerability and safety were assessed by closely monitoring blood glucose levels and conducting other tests. All adverse events and severe adverse events (SAEs) were evaluated.
The safety of both formulations was evaluated through the assessment of laboratory examinations, 12-lead electrocardiogram, and vital signs.

Consider “mixed protamine zinc recombinant human insulin lispro injection [listing 1 of 2 here]”, for which the Infusion site swelling is listed as 0 Number of Subjects(%).

Turning to “mixed protamine zinc recombinant human insulin lispro injection [listing 2 of 2 here]”, the Infusion site swelling is given as 1(2.0) Number of Subjects(%).
